Laboratory results as given in patent US20100183714A1, “GASTRORESISTANT PHARMACEUTICAL DOSAGE FORM COMPRISING N-(2-(2- PHTHALIMIDOETHOXY)-ACETYL)-L-ALANYL-D-GLUTAMIC ACID (LK-423)” (priority 2004, published 2010).

System: ulcerative changes of the ileum, caecum and colon
Experiment: Antiulcerative action in vivo, DSS-induced ulcerative changes in rats
Conditions: 75 mg/kg orally
Source text: Ulcerative changes of ileum, caecum and colon in rats were developed in five days by drinking water containing 2% of sodium dextran sulphate (DSS).
DSS is the compound which after oral administration in an aqueous solution induces inflammatory and ulcerative changes in the mucosa of ileum, caecum and colon in animals.
The animals were randomly assigned to the individual groups.
From experiment day 6 onward the animals were drinking water with 1% DSS. The animals in Group A received the pure compound LK 423 in a dose of 75 mg/kg. The pure compound LK 423 was prepared as suspension in 1% gelatin (Gelatin GE0020, Scharlau) and was given orally via the tube in a volume of 1 ml.
In Group B the animals received the microcapsules comprising LK 423 in a dose of 75 mg/kg (as prepared in Example 1). The microcapsules comprising LK 423 were given orally via the tube dispersed in 1.5 to 2 ml 1% of gelatin.
At baseline the rats had body weight from 220 to 250 g. […] At baseline and on days 6 and 12 the body weight was recorded. For determination of the hematology parameters 1.5 ml blood samples were taken from the periorbital sinus at baseline and on day 5 of the experiment and from the abdominal aorta on day 12. The erythrocyte count and hemoglobin and hematocrit values were performed in the clinical laboratory of the Institute for Health Protection of Ruminants, Faculty of Veterinary Science. […] Throughout the experiment survival of the animals, diarrhea and occurrence of blood in the feces or the intensity of bleeding were also observed. On day 12 the animals were sacrificed under deep ether anesthesia and post-mortem examination was performed. Macroscopic changes in the ileum, caecum and in the colon and the intensity of bleeding were observed.
At autopsy fragments of the intestine were taken from the animals and fixed in 10% formaldehyde; paraffin tissue sections were prepared and stained with hematoxylin and eosin. Pathohistological diagnosis was then performed.
In all groups (both control groups, group A and group B) (Table 3) the tissue damage and a reaction of the surrounding tissue to the damage (level of regeneration) as well as accompanying parameters of the scope of bleeding in the mucosa, hypertrophy of the mucosa with glandular hyperplasia and the degree of epithelialization of the damage surface were assessed. The criteria were as follows:
The Scope of Acute Bleeding with Respect to the Tissue and to the Diameter of the Field of View at 40-Fold Magnification (4 mm): • No bleeding—0 • Small bleeding in the propria and submucosa, with a diameter less than half of the field of view—1 • Moderate bleeding in the propria and submucosa, with a diameter to one half of the field of view—2 • Very extensive bleeding in the propria and submucosa with a diameter greater than half of the field of view—3 • Very extensive bleeding in the propria, submucosa, around the vessels in the tunica muscularis, tunica serosa, and in the supporting tissue—4 Regressive Process—Damage with a Defense Reaction of the Tissue: • No cellular response (no reaction) or the regressive process was no longer active—0 • Moderate cellular infiltration (monocytes, granulocytes, macrophage, histocytes) with karyorrhesis and pyknosis in the mucosa and the submucosa—1 • Severe diffuse cellular infiltration (monocytes, granulocytes, macrophage, histocytes) with karyorrhesis and pyknosis in the mucosa and the submucos—2 • Cellular infiltration (monocytes, granulocytes, macrophage, histocytes) in the demarcation line around the injury—3

SMILES: C[C@H](NC(=O)COCCN1C(=O)c2ccccc2C1=O)C(=O)N[C@H](CCC(=O)O)C(=O)O [LK 423, N-(2-(2-phthalimidoethoxy)-acetyl)-L-alanyl-D-glutamic acid]
- Blood in the feces: +
- Mortality: 33%
- Percent of bleeding animals, Caecum: 17
- Percent of bleeding animals, Colon: 17
- Percent of bleeding animals, Ileum: 17
- Difference of hematology values from day 0 to 12, Erythrocytes (decrease from baseline): 1.25 × 10^12/l
- Difference of hematology values from day 0 to 12, Hematocrit (decrease from baseline): 6.74%
- Difference of hematology values from day 0 to 12, Hemoglobin (decrease from baseline): 17.2 g/l
- Level of bleeding in the mucosa (histological score): 0.6
- Cellular process in sacrificed animals, Epithelialization (histological score, day 12): 2.37
- Cellular process in sacrificed animals, Hypertrophy of the mucosa (histological score, day 12): 2.75
- Cellular process in sacrificed animals, Level of damage (histological score, day 12): 1.75
- Cellular process in sacrificed animals, Level of regeneration (histological score, day 12): 2.37
- regeneration of damages of the intestinal mucosa compared with both control groups (pathohistology): more rapid regeneration
